“Also recorded” adds a separate entry of the source. Where two headings read alike, the source gives them in different places. Marks after values point to notes of the source that are not given here.
Experiments:
in vitro plaque [1] = test: in vitro artificial plaque assay on saliva-coated aluminium plummets (Tests 1, 3, 4 and general statements); assay type: cell-based; settings: for minimum amount of the metal compound necessary to result in control of plaque: at the site of formation of the plaque, under the conditions of the tests
Experimental: An in vitro test was used in the Tests described herein for examining and effects of chemotherapeutic agents on plaque, and was carried out in accordance with the test reported in the Journal of Dental Research, Vol. 55, February 1976, page B286, by R T Evans, P J Baker, R A Coburn and R J Genco. An assay system for producing artificial plaque was used to screen antiplaque agents rapidly under conditions which simulated those found in the oral cavity.
The in vitro plaque was formed at 37°C on uniformly- sized aluminium plummets which were first coated with saliva. The plummets were then placed in a growth medium inoculated with clinical plaque samples. After seven hours the plummets were suspended overnight in a 25;0 saliva mixture. On the second day, the plummets were immersed in a 50% saliva - 50% test compound mixture for one minute, placed in the growth medium for seven hours, retreated with the test mixture and suspended in 25% saliva overnight. The plummets were treated again on the third day and incubated in the growth medium for three hcurs. The plaques were removed from the plummets by donication into approximately six millilitres of buffer and quantitated by optical density (O.D.) in a Beckman DU spectrophotometer at 570 nm.
Positive controls were included to determine relative activity. Comparisons of antiplaque activity were then made within a given experiment. At least five replicas per compound were examined.
The experiments are conducted in the same manner, in a 15% ethanol/water media at pH 5.
The effects of 0.060% tetradecylamine (TDA) 0.05 SnCl4, and the combination of SnCl and TDA at these concentrations are examined by the artificial plaque method previously described, all with 15% ethanol, at pH 2.6.

rats = settings: orally in rats; Seventh Issue of the Merck Index; cited from earlier work
plaque = settings: clinical data, zinc salt alone; cited from earlier work
in vitro plaque [2] = test: in vitro artificial plaque assay, treatment on the third day eliminated (Test 2); assay type: cell-based; settings: no treatment on third day
Experimental: An in vitro test was used in the Tests described herein for examining and effects of chemotherapeutic agents on plaque, and was carried out in accordance with the test reported in the Journal of Dental Research, Vol. 55, February 1976, page B286, by R T Evans, P J Baker, R A Coburn and R J Genco. An assay system for producing artificial plaque was used to screen antiplaque agents rapidly under conditions which simulated those found in the oral cavity. […] The assay gives reproducible, quantitative results and has the ability to distinguish between antibacterial agents which are clinically effective or non-effective as plaquae inhibitors. The in vitro plaque was formed at 37°C on uniformly- sized aluminium plummets which were first coated with saliva. The plummets were then placed in a growth medium inoculated with clinical plaque samples. After seven hours the plummets were suspended overnight in a 25;0 saliva mixture. On the second day, the plummets were immersed in a 50% saliva - 50% test compound mixture for one minute, placed in the growth medium for seven hours, retreated with the test mixture and suspended in 25% saliva overnight. The plummets were treated again on the third day and incubated in the growth medium for three hcurs. The plaques were removed from the plummets by donication into approximately six millilitres of buffer and quantitated by optical density (O.D.) in a Beckman DU spectrophotometer at 570 nm. […] Positive controls were included to determine relative activity. Comparisons of antiplaque activity were then made within a given experiment. At least five replicas per compound were examined. To test higher levels of tetradecylamine, the artificial plaque treatment previously described is eliminated on the third day to simulate infrequent use of the antiplaque products.

[3] = critical micellar concentration (CMC); assay type: physicochemical
[4] = amine in place of tetradecylamine, in combination with metal compounds (zinc or aluminium)
[5] = metal salt alone 0.10 % Wt./Vol., 15% ethanol/water, pH 5
[6] = cation or anion as such, by the in vitro assay
[7] = addition of CO2 to tetradecylamine

## [Ni] [nickel]
In vitro plaque [1]
  minimum amount of the metal compound necessary to result in control of plaque: ~500 µM
rats
  LD50: 0.3-0.9 g/kg body weight

## CCCCCCCCCCCCN(C)C [dimethyldodecylamine, reference compound]
In vitro plaque [1]; [4]
  synergistic plaque reductions: do not give synergistic plaque reductions

## F [fluoride]
In vitro plaque [1]
  synergistic plaque reductions: synergism has not been found; also recorded: synergism was not found

## O=[N+]([O-])O [nitrate]
In vitro plaque [1]
  synergistic plaque reductions: synergism has not been found; also recorded: synergism was not found

## O.O.O.O=[N+]([O-])[O-].O=[N+]([O-])[O-].[Cu+2] [Cu(NO3)2.3H2O, reference compound]
In vitro plaque [1]; [5]
  % Reduction: -10%

## [Al] [aluminium]
In vitro plaque [1]
  minimum amount of the metal compound necessary to result in control of plaque: about 0.001 molar
rats
  LD50: 3-4 g/kg body weight

## [Sn] [tin]
In vitro plaque [1]
  minimum amount of the metal compound necessary to result in control of plaque: ~500 µM
rats
  LD50: about 0.05 g/kg body weight

## [Na] [sodium]
In vitro plaque [1]; [6]
  synergistic plaque reductions: have not been found to give synergistic plaque reductions; also recorded: did not give synergistic plaque reductions

## [Fe] [iron]
In vitro plaque [1]
  minimum amount of the metal compound necessary to result in control of plaque: ~500 µM
rats
  LD50: 0.3-0.9 g/kg body weight

## CCCCCCCCCCCCCCCC[n+]1ccccc1 [CPC, cetyl pyridinium chloride, reference compound]
In vitro plaque [1]; pH 4.1
  Average Optical Density: .515

## [Zn] [zinc]
In vitro plaque [1]
  minimum amount of the metal compound necessary to result in control of plaque: about 0.001 molar
rats
  LD50: 3-4 g/kg body weight

## [O-][n+]1ccccc1[S-].[O-][n+]1ccccc1[S-].[Zn+2] [zinc salt]
plaque
  reduction in plaque: about 5%

## O.O.O.O.O.O.[Cl-].[Cl-].[Cl-].[Fe+3] [FeCl3.6H2O, reference compound]
In vitro plaque [1]; [5]
  % Reduction: -38%

## CCCCCCCCCCN [decylamine, reference compound]
In vitro plaque [1]; [4]
  synergistic plaque reductions: do not give synergistic plaque reductions

## CCCCCCCCCCCCCCCCCCN(C)C [N,N'-dimethyl-octadecylamine, reference compound]
In vitro plaque [1]; [4]
  synergistic plaque reductions: do not give synergistic plaque reductions

## [Ca+2] [calcium]
In vitro plaque [1]
  synergistic plaque reductions: have not been found to give synergistic plaque reductions; also recorded: did not give synergistic plaque reductions

## [Mg+2] [magnesium]
In vitro plaque [1]; [6]
  synergistic plaque reductions: have not been found to give synergistic plaque reductions; also recorded: did not give synergistic plaque reductions

## CCCCCCCCCCCCCCCCN [hexadecylamine, reference compound]
In vitro plaque [1]; [4]
  synergistic plaque reductions: do not give synergistic plaque reductions; also recorded: not found

## phosphate
In vitro plaque [1]; [6]
  synergistic plaque reductions: synergism has not been found; also recorded: synergism was not found

## Cl [chloride]
In vitro plaque [1]; [6]
  synergistic plaque reductions: synergism has not been found; also recorded: synergism was not found

## O.O.O.O.O.O.[Cl][Ni][Cl] [NiCl2.6H2O, reference compound]
In vitro plaque [1]; [5]
  % Reduction: -17%

## [Cu] [copper]
In vitro plaque [1]
  minimum amount of the metal compound necessary to result in control of plaque: ~500 µM
rats
  LD50: 0.3-0.9 g/kg body weight

## O.O.O.O.O.O.[Al+3].[Cl-].[Cl-].[Cl-] [AlCl3.6H2O]
In vitro plaque [2]; AlCl3.6H2O 1.00 % Wt/Vol
  Average Optical Density: 1.218
In vitro plaque [2]; AlCl3.6H2O 1.00 % Wt/Vol, negative = weight gain
  % Reduction: -9.4* %
In vitro plaque [2]; AlCl3.6H2O .250 % Wt/Vol
  Average Optical Density: 1.080
In vitro plaque [2]; AlCl3.6H2O .250 % Wt/Vol, vs H2O control
  % Reduction: 3.0%

## [Cl-].[Cl-].[Zn+2] [ZnCl2, reference compound]
In vitro plaque [1]; ZnCl2 .30 % Wt/Vol, 15% ethanol, pH 4.1, O.D. at 570 nm
  Average Optical Density: .766
In vitro plaque [1]; ZnCl2 .30 % Wt/Vol, 15% ethanol, pH 4.1, vs H2O control, negative = weight gain
  % Reduction: -8.0* %

## [HH] [hydrogen]
In vitro plaque [1]; [6]
  synergistic plaque reductions: have not been found to give synergistic plaque reductions; also recorded: did not give synergistic plaque reductions

## [K+] [potassium]
In vitro plaque [1]; [6]
  synergistic plaque reductions: have not been found to give synergistic plaque reductions; also recorded: did not give synergistic plaque reductions

## O.O.O.O.O.O.[Cl-].[Cl-].[Co+2] [CoCl2.6H2O, reference compound]
In vitro plaque [1]; [5]
  % Reduction: -25%

## CCCCCCCCCCCCN [Dodecylamine, reference compound]
In vitro plaque [1]; [4]
  synergistic plaque reductions: do not give synergistic plaque reductions
In vitro plaque [1]; amine in place of tetradecylamine, in combination with metal compounds (zinc or aluminium), listed as dodecylamine
  synergistic plaque reductions: not found

## [Co] [cobalt]
In vitro plaque [1]
  minimum amount of the metal compound necessary to result in control of plaque: ~500 µM
rats
  LD50: 0.3-0.9 g/kg body weight

## O.O.O.O.O.[Cl][Sn]([Cl])([Cl])[Cl] [SnCl4.5H2O, reference compound]
In vitro plaque [1]; SnCl4.5H2O 0.05 % Wt/Vol., 15% ethanol, pH 2.6, negative = weight gain
  % Reduction: -8* %

## O=S(=O)(O)O [sulphate]
In vitro plaque [1]; [6]
  synergistic plaque reductions: synergism has not been found; also recorded: synergism was not found

## CCCCCCCCCCCCCCN [TDA, tetradecylamine, reference compound]
In vitro plaque [1]; TDA 0.06 % Wt./Vol., 15% ethanol/water, pH 5, read-out: % Reduction
  inhibition at 0.06 %: 19%
In vitro plaque [1]; TDA 0.06 % Wt/Vol., 15% ethanol, pH 2.6, read-out: % Reduction
  inhibition at 0.06 %: 19%
In vitro plaque [1]; TDA .060 % Wt/Vol, 15% ethanol, pH 4.1, O.D. at 570 nm
  Average Optical Density: .571
In vitro plaque [1]; TDA .060 % Wt/Vol, 15% ethanol, pH 4.1, vs H2O control, read-out: % Reduction
  inhibition at 0.06 %: 18.8%
In vitro plaque [1]; [7]
  antiplaque activity: increased
In vitro plaque [1]; dose-response curve, tetradecylamine 0.060%, no metal present, read-out: plaque reduction
  inhibition at 0.06 %: 18%
In vitro plaque [1]; dose-response curve, tetradecylamine 0.20%, no metal present, read-out: plaque reduction
  inhibition at 0.2 %: 44%
In vitro plaque [2]; TDA .120 % Wt/Vol
  Average Optical Density: .882
In vitro plaque [2]; TDA .120 % Wt/Vol, vs H2O control, read-out: % Reduction
  inhibition at 0.12 %: 20.7%
[3]; [7]
  CMC: lowering
[3]; in combination with selected metals
  critical micellar concentration (CMC): lowered

Source: patent publication EP0011663A1, “Toilet and dental preparations and their use for oral and dental hygiene” (UNILEVER PLC, priority 1978, dated 1980)
